Assay results taken from patent US4459404A, “Amides of retinoic acids with 5-amino tetrazole” (BASF Aktiengesellschaft, priority 1980, dated 1984).
Like-named read-outs stand apart in the source and are kept apart here.

Legend:
[1] = system: keratinization of hamster tracheal epithelium (tracheal organ culture, vitamin A deficiency); assay: Reversal of keratinization in tracheal organ culture; format: cell-based; details: Mesocricetus auratus, 240 h, read-out: ED50 (molar dose effective in suppressing keratinization in one-half of the cultures)
Description: This keratinization is inhibited, after initiation by chemical compounds, through the use of high energy radiation, or after viral cell transformation, through the use of the novel compounds of the formula (I). The method is described in Cancer Res. 36 (1976), 964-972, Nature 250 (1974), 64-66 and Nature 253 (1975), 47-50.
This assay measures the intrinsic ability of the novel compounds to control epithelial cell differentiation. The significant predictive value of this screening procedure for the potential use of a novel retinoid in the prevention of epithelial tissue tumors is generally accepted. At the same time it is known that any in vitro test system has disadvantages for the prediction of in vivo activity. Apart from these fundamental limitations, the tracheal organ culture assay is one of the most valuable procedures for evaluating the biological activity of a novel retinoid.
The assay procedure determines the ability of the two compounds to reverse keratinization in a defined in vitro system. Tracheas from hamsters in a very early stage of vitamin A deficiency were placed in organ culture. At that time, the animals were 29-30 days old (having been weaned at 21 days) and were still gaining some weight. Their average weight was 47-52 g. Their tracheal epithelium was generally low columnar or cuboidal, with only occasional patches of squamous metaplasia. Each trachea was opened from the larynx to the carina along the membranous dorsal wall and placed in culture in a serum-free medium (CMRL-1066 supplemented with crystalline bovine insulin, 1.0 μg/ml; hydrocortisone hemisuccinate, 0.1 μg/ml; glutamine, 2 mM; penicillin, 100 units/ml; and streptomycin, 100 μg/ml). The cultures were gassed with a mixture of 50% of oxygen, 45% of nitrogen and 5% of carbon dioxide. The culture dishes were rocked through 35.5-36.0 degrees to contact the tracheas with both gas and medium. All tracheas were maintained in medium containing no retinoid for the first 3 days. At the end of the 3 days, some tracheas were harvested. Almost all of these tracheas had significant squamous metaplasia. […]

[2] = system: male Sprague-Dawley CD rats; assay: Comparative oral toxicity in rats (inhibition of growth and lethality over two weeks); details: for Proportion of survivors, Day 6 / Proportion of survivors, Day 11: 25 μmole/day in corn oil with 4% chloroform; for Average weight, Day 6 / Average weight, Day 11: 25 μmole/day, initial weight 95-110 g; for Average weight, Day 6: Day 6, mean with standard deviation; for Average weight, Day 11: Day 11, mean with standard deviation
Description: 2. Comparative toxicity of all-E-N-(tetrazol-5-yl)-retinamide and 13-Z-N-(tetrazol-5-yl)-retinamide.
(a) Male Sprague-Dawley CD rats from Charles River (50-75 g) were randomized and weighed daily for one week before the start of the experiment. At the beginning of the toxicological screen the animals weighed 95-110 g.
(b) The vehicle for the test substances was corn oil containing 4% of chloroform. The dose was 25 μmole of test substance/day, in 0.5 ml of vehicle.

[3] = system: comedones induced by coal tar (rabbit ear model); assay: Comedolytic activity in a rabbit ear model; format: in vivo, albino rabbit; details: topical, two weeks, decrease in comedones vs control ear
Description: Comedo formation was induced by topical application (0.5 ml), once daily, of 5% coal tar in Polyan® (an ester of lanolin alcohol and linoleic acid, from Amerchol Corp., USA) to both ears of albino rabbits on 5 successive days per week, for two weeks. Following this, the test substance, in a 70:30 volume/volume alcohol:propylene glycol mixture, was applied topically, in an amount of 0.5 ml, to the inner surface of one ear of each rabbit once daily on 5 consecutive days per week, for two weeks. The contra-lateral ear of each rabbit served as an untreated control.
Following a subsequent treatment (~72 hours) with the test substance, the rabbits were sacrificed. A sample of skin, of about 6 cm^2, was removed from the pinna of each ear just external to the auditory canal and was divided into pieces of about 1 cm^2.
These pieces of skin were immersed in water at 60° C. for 2 minutes. The epidermis was carefully peeled off using the flat end of a spatula and fine forceps, and was placed on a microscope slide, with the dermal side facing upward. After overnight airdrying, the slide was examined under the stereomicroscope. Follicular extensions of horny material remain intact. Comedones show up as discrete, uniformly shaped, cylindrical to global horny masses, whose size and number are proportional to the […].
The comedolytic effect was determined by the decrease in the number of comedones in comparison with the control ear.

[4] = system: dorsal skin (erythema and scaling); design: species or system New Zealand white rabbit (male); details: rabbit, in vivo
Description: 4. Topical tolerance study of the test substances Six New Zealand white male rabbits were used in each study. Sites, each about 6 cm^2 in size, were shaved on the dorsal trunk of each test animal. The test substances were dissolved in a 70:30 volume/volume alcohol:propylene glycol mixture and 0.2 ml of the solution was applied topically from an automatic micropipette by gentle inunction to a pre-designated site twice daily, with an interval of six hours, for nine successive days. All sites were subjectively evaluated for erythema and scaling at the beginning of the test and before each morning application. A numerical grading scale of 0 to 3 was used (0=no reaction, 1=mild, 2=moderate, 3=severe).

the organism = details: in vivo; cited from earlier work
liver = details: use in therapy; cited from earlier work
[5] = hamster tracheal organ culture, serum-free medium, 10 days, extrapolated from dose-response curves

SMILES | IC50 [1, 5] [nM] | Proportion of survivors, Day 6 [2] | Proportion of survivors, Day 11 [2] | Average weight, Day 6 [2] | Average weight, Day 11 [2] | % comedolytic activity ([3]; 0.1% concentration) [%] | Rating erythema [4] | Rating scaling [4] | mean erythema [4] | mean scaling [4] | % comedolytic activity ([3]; 0.025% concentration) [%] | IC50 [1] [nM] | % comedolytic activity ([3]; 0.05% concentration) [%] | toxic effects (the organism) | liver retinoid concentration and organ damage (liver)
CC1=C(/C=C/C(C)=C/C=C/C(C)=C\C(=O)Nc2nnn[nH]2)C(C)(C)CCC1 [13-Z-N--(tetrazol-5-yl)-retinamide, 13-Z-N-(tetrazol-5-yl)-retinamide] | 0.2 | 2/5 | 2/5 | 122 ± 18 | 140 ± 27 | 39.4 | mild | none | 0.5 | 0.1 | – | – | – | – | –
CC1=C(/C=C/C(C)=C/C=C/C(C)=C\C(=O)O)C(C)(C)CCC1 [13-Z-retinoic acid, reference compound] | – | – | – | – | – | – | severe | severe | 3.0 | 3.0 | – | – | – | – | –
CC1=C(/C=C/C(C)=C/C=C/C(C)=C/C(=O)Nc2nnn[nH]2)C(C)(C)CCC1 [all-E-N--(tetrazol-5-yl)-retinamide, all-E-N-(tetrazol-5-yl)-retinamide] | 0.1 | 3/4 | 3/4 | 124 ± 6 | 155 ± 4 | – | mild | none | 0.8 | 0 | 35.1 | – | – | – | –
CC1=C(/C=C/C(C)=C/C=C/C(C)=C/C(=O)O)C(C)(C)CCC1 [all-E-retinoic acid, reference compound] | – | 3/5 | 0/5 | 95 ± 2 | – | – | moderate | moderate | 2.3 | 1.9 | – | 0.03 | 58.3 | even slightly increased doses cause severe damage to the organism, for example with symptoms of hypervitaminosis-A | –
CC1=C(/C=C/C(C)=C/C=C/C(C)=C/CO)C(C)(C)CCC1 [retinol] | – | – | – | – | – | – | – | – | – | – | – | – | – | – | intolerably high retinoid concentration in the liver leads to severe and irreversible damage to the organ
CC(=O)OC/C=C(C)/C=C/C=C(C)/C=C/C1=C(C)CCCC1(C)C [retinyl acetate] | – | – | – | – | – | – | – | – | – | – | – | – | – | – | intolerably high retinoid concentration in the liver leads to severe and irreversible damage to the organ
